Reference: US8178530B2, “Imidazolopyrazine compounds useful for the treatment of degenerative and inflammatory diseases” (Janssen Pharmaceutica NV, priority 2006, dated 2012)

Test system: MMP1 expression by SFs
Experiment: 'MMP assay': MMP1 expression by 'complex trigger' activated synovial fibroblasts (MMP1 ELISA)
Type: cell-based, human
Conditions: RASFs, 48 hrs

For `CN1CCN(c2ccc(Nc3ncc(-c4csc(C(N)=O)c4)n4ccnc34)cc2)CC1` [Compound 118], which EC50 (Homo sapiens, Fibroblast) is on record?
Its EC50 is greater than 1000 nM.

For `CN1CCN(c2ccc(Nc3ncc(-c4ccc(C(N)=O)nc4)n4ccnc34)cc2)CC1` [Compound 129, 5-{8-[4-(4-Methyl-piperazin-1-yl)-phenylamino]-imidazo[1,2-a]pyrazin-5-yl}-pyridine-2-carboxylic acid amide], which EC50 (Homo sapiens, Fibroblast) is on record?
Its EC50 is greater than 1000 nM.

For `C[C@@H]1CN(C)[C@@H](C)CN1c1ccc(Nc2ncc(-c3ccc(C(N)=O)cc3)n3ccnc23)cc1` [Compound 137], which EC50 (Homo sapiens, Fibroblast) is on record?
The EC50 was 101 to 500 nM.

With `c1cn2c(-c3c[nH]cn3)cnc(Nc3ccc(N4CCOCC4)cc3)c2n1` [Compound 163] as the compound, how does the EC50 (Homo sapiens, Fibroblast) read?
Its EC50 is greater than 1000 nM.

With `O=C1NCc2cc(-c3cnc(Nc4ccc(N5CCOCC5)cc4)c4nccn34)sc21` [Compound 198, 2-[8-(4-Morpholin-4-yl-phenylamino)-imidazo[1,2-a]pyrazin-5-yl]-4,5-dihydro-thieno[2,3-c]pyrrol-6-one] as the compound, how does the EC50 (Homo sapiens, Fibroblast) read?
Its EC50 is 101 to 500 nM.

With `CN1CCN(c2ccc(Nc3ncc(-c4ccc(C(N)=O)o4)n4ccnc34)cc2)CC1` [Compound 139, 5-{8-[4-(4-Methyl-piperazin-1-yl)-phenylamino]-imidazo[1,2-a]pyrazin-5-yl}-furan-2-carboxylic acid amide] as the compound, how does the EC50 (Homo sapiens, Fibroblast) read?
The EC50 was greater than 1000 nM.

How did the EC50 (Homo sapiens, Fibroblast) turn out when `CC(C)N1CCN(c2ccc(Nc3ncc(-c4ccc(C(N)=O)cc4)n4ccnc34)cc2)CC1` [Compound 142] was run?
The EC50 was 501 to 1000 nM.

`O=C(Nc1ccccc1)c1ccc(Nc2ncc(-c3cn[nH]c3)n3ccnc23)cc1` [Compound 41] was tested. Which EC50 (Homo sapiens, Fibroblast) did it give?
The EC50 was greater than 1000 nM.

With `C[C@@H]1CN(c2ccc(Nc3ncc(-c4csc(C(N)=O)c4)n4ccnc34)cc2)[C@@H](C)CN1C` [Compound 186] as the compound, how does the EC50 (Homo sapiens, Fibroblast) read?
Its EC50 is 501 to 1000 nM.

`CN(C)Cc1cc(Nc2ncc(-c3cn[nH]c3)n3ccnc23)ccc1N1CCOCC1` [Compound 218, (3-Dimethylaminomethyl-4-morpholin-4-yl-phenyl)-[5-(1H-pyrazol-4-yl)-imidazo[1,2-a]pyrazin-8-yl]-amine] was tested. Which EC50 (Homo sapiens, Fibroblast) did it give?
The EC50 was greater than 1000 nM.

How did the EC50 (Homo sapiens, Fibroblast) turn out when `NC(=O)c1cnc(-c2cnc(Nc3ccc(N4CCOCC4)cc3)c3nccn23)s1` [Compound 158, 2-[8-(4-Morpholin-4-yl-phenylamino)-imidazo[1,2-a]pyrazin-5-yl]-thiazole-5-carboxylic acid amide] was run?
Its EC50 is greater than 1000 nM.

`O=C(NCc1cccnc1)c1ccc(Nc2ncc(-c3cn[nH]c3)n3ccnc23)cc1` [Compound 35] was tested. Which EC50 (Homo sapiens, Fibroblast) did it give?
Its EC50 is greater than 1000 nM.

For `NC(=O)c1ncc(-c2cnc(Nc3ccc(N4CCOCC4)cc3)c3nccn23)s1` [Compound 173, 5-[8-(4-Morpholin-4-yl-phenylamino)-imidazo[1,2-a]pyrazin-5-yl]-thiazole-2-carboxylic acid amide], which EC50 (Homo sapiens, Fibroblast) is on record?
The EC50 was greater than 1000 nM.

With `CN1CCN(c2ccc(Nc3ncc(-c4cn[nH]c4)n4ccnc34)cc2)CC1` [Compound 14] as the compound, how does the EC50 (Homo sapiens, Fibroblast) read?
The EC50 was greater than 1000 nM.

How did the EC50 (Homo sapiens, Fibroblast) turn out when `CN(C)C(CNC(=O)c1ccc(Nc2ncc(-c3cc[nH]c(=O)c3)n3ccnc23)cc1)c1cccnc1` (stereo not drawn) [Compound 114] was run?
Its EC50 is greater than 1000 nM.

For `O=C(NCCc1cccnc1)c1ccc(Nc2ncc(-c3cn[nH]c3)n3ccnc23)cc1` [Compound 93], which EC50 (Homo sapiens, Fibroblast) is on record?
Its EC50 is greater than 1000 nM.

How did the EC50 (Homo sapiens, Fibroblast) turn out when `NC(=O)c1ccc(-c2cnc(Nc3ccc(-n4ccnc4)cc3)c3nccn23)cc1` [Compound 167] was run?
Its EC50 is greater than 1000 nM.

How did the EC50 (Homo sapiens, Fibroblast) turn out when `CNC(=O)c1ccc(-c2cnc(Nc3ccc(N4CCN(C)CC4)cc3)c3nccn23)cc1` [Compound 116] was run?
The EC50 was greater than 1000 nM.

With `C[C@@H]1CN(c2ccc(Nc3ncc(-c4ccc(C(N)=O)cc4)n4ccnc34)cc2)C[C@H](C)N1C` [Compound 155] as the compound, how does the EC50 (Homo sapiens, Fibroblast) read?
The EC50 was 101 to 500 nM.

How did the EC50 (Homo sapiens, Fibroblast) turn out when `CN1CCN(c2ccc(Nc3ncc(-c4ccc(C(N)=O)cc4)n4ccnc34)cc2F)CC1` [Compound 171, 4-{8-[3-Fluoro-4-(4-methyl-piperazin-1-yl)-phenylamino]-imidazo[1,2-a]pyrazin-5-yl}-benzamide] was run?
Its EC50 is 101 to 500 nM.

For `C[C@@H]1CN(c2ccc(Nc3ncc(-c4cc(F)c(C(N)=O)c(F)c4)n4ccnc34)cc2)[C@@H](C)CN1C` [Compound 181], which EC50 (Homo sapiens, Fibroblast) is on record?
The EC50 was greater than 1000 nM.

For `CC(C)N1CCN(c2ccc(Nc3ncc(-c4ccc5c(c4)CNC5=O)n4ccnc34)cc2)CC1` [Compound 205, 5-{8-[4-(4-Isopropyl-piperazin-1-yl)-phenylamino]-imidazo[1,2-a]pyrazin-5-yl}-2,3-dihydro-isoindol-1-one], which EC50 (Homo sapiens, Fibroblast) is on record?
The EC50 was greater than 1000 nM.

Which EC50 (Homo sapiens, Fibroblast) does the source give for `CC(C)N1CCN(c2ccc(Nc3ncc(-c4cc(F)c(C(N)=O)c(F)c4)n4ccnc34)cc2)CC1` [Compound 193] here?
The EC50 was 501 to 1000 nM.

Which EC50 (Homo sapiens, Fibroblast) does the source give for `NC(=O)c1ccc(Nc2ncc(-c3cn[nH]c3)n3ccnc23)cc1` [Compound 11] here?
Its EC50 is greater than 1000 nM.

With `NC(=O)c1ccc(-c2cnc(Nc3ccc(-c4cccnc4)cc3)c3nccn23)cc1` [Compound 153] as the compound, how does the EC50 (Homo sapiens, Fibroblast) read?
The EC50 was 101 to 500 nM.

How did the EC50 (Homo sapiens, Fibroblast) turn out when `O=C(NCc1ccc(O)cc1)c1ccc(Nc2ncc(-c3cn[nH]c3)n3ccnc23)cc1` [Compound 90, N-(4-Hydroxybenzyl)-4-[5-(1H-pyrazol-4-yl)imidazo[1,2-a]pyrazin-8-ylamino]benzamide] was run?
The EC50 was 101 to 500 nM.

How did the EC50 (Homo sapiens, Fibroblast) turn out when `NC(=O)c1ccc(-c2cnc(Nc3ccc(N4CCCCC4)cc3)c3nccn23)cc1` [Compound 144] was run?
The EC50 was 101 to 500 nM.

How did the EC50 (Homo sapiens, Fibroblast) turn out when `NS(=O)(=O)c1ccc(Nc2ncc(-c3cn[nH]c3)n3ccnc23)cc1` [Compound 36] was run?
Its EC50 is greater than 1000 nM.

How did the EC50 (Homo sapiens, Fibroblast) turn out when `CN1CCN(c2ccc(Nc3ncc(-c4ccc(C(N)=O)cc4)n4ccnc34)cc2Cl)CC1` [Compound 136, 4-{8-[3-Chloro-4-(4-methyl-piperazin-1-yl)-phenylamino]-imidazo[1,2-a]pyrazin-5-yl}-benzamide] was run?
Its EC50 is greater than 1000 nM.

`O=C1NCc2cc(-c3cnc(Nc4cccnc4)c4nccn34)ccc21` [Compound 197] was tested. Which EC50 (Homo sapiens, Fibroblast) did it give?
Its EC50 is 501 to 1000 nM.

How did the EC50 (Homo sapiens, Fibroblast) turn out when `CCNCCNC(=O)c1ccc(Nc2ncc(-c3cn[nH]c3)n3ccnc23)cc1` [Compound 56] was run?
Its EC50 is greater than 1000 nM.

With `CC(C)N1CCN(c2ccc(Nc3ncc(-c4ccc5c(c4)CNC5=O)n4ccnc34)cn2)CC1` [Compound 210, 5-{8-[6-(4-Isopropyl-piperazin-1-yl)-pyridin-3-ylamino]-imidazo[1,2-a]pyrazin-5-yl}-2,3-dihydro-isoindol-1-one] as the compound, how does the EC50 (Homo sapiens, Fibroblast) read?
Its EC50 is 501 to 1000 nM.

For `O=C(c1ccc(Nc2ncc(-c3cn[nH]c3)n3ccnc23)cc1)N1CCOCC1` [Compound 45], which EC50 (Homo sapiens, Fibroblast) is on record?
The EC50 was greater than 1000 nM.

Which EC50 (Homo sapiens, Fibroblast) does the source give for `Cc1[nH]ncc1-c1cnc(Nc2ccc(N3CCN(C)CC3)cc2)c2nccn12` [Compound 119, (4-(4-Methylpiperazin-1-yl)phenyl)-[5-(5-methyl-1H-pyrazol-4-yl)imidazo[1,2-a]pyrazin-8-yl]amine] here?
The EC50 was greater than 1000 nM.

With `CN1CCN(c2ccc(Nc3ncc(-c4ccc(C(N)=O)s4)n4ccnc34)cc2)CC1` [Compound 127, (4-(4-Methylpiperazin-1-yl)phenyl)-[5-(2-carboxamido-5-thienyl)imidazo[1,2-a]pyrazin-8-yl]amine] as the compound, how does the EC50 (Homo sapiens, Fibroblast) read?
Its EC50 is 101 to 500 nM.

With “4-(8-{4-[1-(2,2,2-Trifluoroethyl)piperidin-4-yl]phenylamino}imidazo[1,2-a]pyrazin-5-yl)thiophene-2-carboxylic acid amide [Compound 192]” as the compound, how does the EC50 read?
Its EC50 is 501 to 1000 nM.

With `CS(=O)(=O)c1ccc(Nc2ncc(-c3cn[nH]c3)n3ccnc23)cc1` [Compound 71] as the compound, how does the EC50 (Homo sapiens, Fibroblast) read?
The EC50 was greater than 1000 nM.

With `Cn1cnnc1-c1ccc(Nc2ncc(-c3ccc(C(N)=O)cc3)n3ccnc23)cc1` [Compound 141] as the compound, how does the EC50 (Homo sapiens, Fibroblast) read?
The EC50 was 501 to 1000 nM.

For `CCN(CC)CCNC(=O)c1ccc(Nc2ncc(-c3cn[nH]c3)n3ccnc23)cc1` [Compound 32, N-(2-Diethylamino-ethyl)-4-[5-(1H-pyrazol-4-yl)-imidazo[1,2-a]pyrazin-8-ylamino]-benzamide], which EC50 (Homo sapiens, Fibroblast) is on record?
The EC50 was greater than 1000 nM.
